Data: PMC12405493, “Selective ubiquitination of drug-like small molecules by the ubiquitin ligase HUWE1” (Nature Communications, 2025)

Assays:
[1] = biological target: T1, HUWE1^FL (Homo sapiens, UniProt Q7Z6Z7); experiment: HUWE1^FL multi-turnover ubiquitination reactions without protein substrate (autoubiquitination, free Ub chains); assay type: biochemical; conditions: without protein substrate; varying concentrations
T1 construct: made in house; host or cells: HEK293T (transient transfection, anti-Flag purification, SEC)
T1 sequence (Q7Z6Z7 whole entry): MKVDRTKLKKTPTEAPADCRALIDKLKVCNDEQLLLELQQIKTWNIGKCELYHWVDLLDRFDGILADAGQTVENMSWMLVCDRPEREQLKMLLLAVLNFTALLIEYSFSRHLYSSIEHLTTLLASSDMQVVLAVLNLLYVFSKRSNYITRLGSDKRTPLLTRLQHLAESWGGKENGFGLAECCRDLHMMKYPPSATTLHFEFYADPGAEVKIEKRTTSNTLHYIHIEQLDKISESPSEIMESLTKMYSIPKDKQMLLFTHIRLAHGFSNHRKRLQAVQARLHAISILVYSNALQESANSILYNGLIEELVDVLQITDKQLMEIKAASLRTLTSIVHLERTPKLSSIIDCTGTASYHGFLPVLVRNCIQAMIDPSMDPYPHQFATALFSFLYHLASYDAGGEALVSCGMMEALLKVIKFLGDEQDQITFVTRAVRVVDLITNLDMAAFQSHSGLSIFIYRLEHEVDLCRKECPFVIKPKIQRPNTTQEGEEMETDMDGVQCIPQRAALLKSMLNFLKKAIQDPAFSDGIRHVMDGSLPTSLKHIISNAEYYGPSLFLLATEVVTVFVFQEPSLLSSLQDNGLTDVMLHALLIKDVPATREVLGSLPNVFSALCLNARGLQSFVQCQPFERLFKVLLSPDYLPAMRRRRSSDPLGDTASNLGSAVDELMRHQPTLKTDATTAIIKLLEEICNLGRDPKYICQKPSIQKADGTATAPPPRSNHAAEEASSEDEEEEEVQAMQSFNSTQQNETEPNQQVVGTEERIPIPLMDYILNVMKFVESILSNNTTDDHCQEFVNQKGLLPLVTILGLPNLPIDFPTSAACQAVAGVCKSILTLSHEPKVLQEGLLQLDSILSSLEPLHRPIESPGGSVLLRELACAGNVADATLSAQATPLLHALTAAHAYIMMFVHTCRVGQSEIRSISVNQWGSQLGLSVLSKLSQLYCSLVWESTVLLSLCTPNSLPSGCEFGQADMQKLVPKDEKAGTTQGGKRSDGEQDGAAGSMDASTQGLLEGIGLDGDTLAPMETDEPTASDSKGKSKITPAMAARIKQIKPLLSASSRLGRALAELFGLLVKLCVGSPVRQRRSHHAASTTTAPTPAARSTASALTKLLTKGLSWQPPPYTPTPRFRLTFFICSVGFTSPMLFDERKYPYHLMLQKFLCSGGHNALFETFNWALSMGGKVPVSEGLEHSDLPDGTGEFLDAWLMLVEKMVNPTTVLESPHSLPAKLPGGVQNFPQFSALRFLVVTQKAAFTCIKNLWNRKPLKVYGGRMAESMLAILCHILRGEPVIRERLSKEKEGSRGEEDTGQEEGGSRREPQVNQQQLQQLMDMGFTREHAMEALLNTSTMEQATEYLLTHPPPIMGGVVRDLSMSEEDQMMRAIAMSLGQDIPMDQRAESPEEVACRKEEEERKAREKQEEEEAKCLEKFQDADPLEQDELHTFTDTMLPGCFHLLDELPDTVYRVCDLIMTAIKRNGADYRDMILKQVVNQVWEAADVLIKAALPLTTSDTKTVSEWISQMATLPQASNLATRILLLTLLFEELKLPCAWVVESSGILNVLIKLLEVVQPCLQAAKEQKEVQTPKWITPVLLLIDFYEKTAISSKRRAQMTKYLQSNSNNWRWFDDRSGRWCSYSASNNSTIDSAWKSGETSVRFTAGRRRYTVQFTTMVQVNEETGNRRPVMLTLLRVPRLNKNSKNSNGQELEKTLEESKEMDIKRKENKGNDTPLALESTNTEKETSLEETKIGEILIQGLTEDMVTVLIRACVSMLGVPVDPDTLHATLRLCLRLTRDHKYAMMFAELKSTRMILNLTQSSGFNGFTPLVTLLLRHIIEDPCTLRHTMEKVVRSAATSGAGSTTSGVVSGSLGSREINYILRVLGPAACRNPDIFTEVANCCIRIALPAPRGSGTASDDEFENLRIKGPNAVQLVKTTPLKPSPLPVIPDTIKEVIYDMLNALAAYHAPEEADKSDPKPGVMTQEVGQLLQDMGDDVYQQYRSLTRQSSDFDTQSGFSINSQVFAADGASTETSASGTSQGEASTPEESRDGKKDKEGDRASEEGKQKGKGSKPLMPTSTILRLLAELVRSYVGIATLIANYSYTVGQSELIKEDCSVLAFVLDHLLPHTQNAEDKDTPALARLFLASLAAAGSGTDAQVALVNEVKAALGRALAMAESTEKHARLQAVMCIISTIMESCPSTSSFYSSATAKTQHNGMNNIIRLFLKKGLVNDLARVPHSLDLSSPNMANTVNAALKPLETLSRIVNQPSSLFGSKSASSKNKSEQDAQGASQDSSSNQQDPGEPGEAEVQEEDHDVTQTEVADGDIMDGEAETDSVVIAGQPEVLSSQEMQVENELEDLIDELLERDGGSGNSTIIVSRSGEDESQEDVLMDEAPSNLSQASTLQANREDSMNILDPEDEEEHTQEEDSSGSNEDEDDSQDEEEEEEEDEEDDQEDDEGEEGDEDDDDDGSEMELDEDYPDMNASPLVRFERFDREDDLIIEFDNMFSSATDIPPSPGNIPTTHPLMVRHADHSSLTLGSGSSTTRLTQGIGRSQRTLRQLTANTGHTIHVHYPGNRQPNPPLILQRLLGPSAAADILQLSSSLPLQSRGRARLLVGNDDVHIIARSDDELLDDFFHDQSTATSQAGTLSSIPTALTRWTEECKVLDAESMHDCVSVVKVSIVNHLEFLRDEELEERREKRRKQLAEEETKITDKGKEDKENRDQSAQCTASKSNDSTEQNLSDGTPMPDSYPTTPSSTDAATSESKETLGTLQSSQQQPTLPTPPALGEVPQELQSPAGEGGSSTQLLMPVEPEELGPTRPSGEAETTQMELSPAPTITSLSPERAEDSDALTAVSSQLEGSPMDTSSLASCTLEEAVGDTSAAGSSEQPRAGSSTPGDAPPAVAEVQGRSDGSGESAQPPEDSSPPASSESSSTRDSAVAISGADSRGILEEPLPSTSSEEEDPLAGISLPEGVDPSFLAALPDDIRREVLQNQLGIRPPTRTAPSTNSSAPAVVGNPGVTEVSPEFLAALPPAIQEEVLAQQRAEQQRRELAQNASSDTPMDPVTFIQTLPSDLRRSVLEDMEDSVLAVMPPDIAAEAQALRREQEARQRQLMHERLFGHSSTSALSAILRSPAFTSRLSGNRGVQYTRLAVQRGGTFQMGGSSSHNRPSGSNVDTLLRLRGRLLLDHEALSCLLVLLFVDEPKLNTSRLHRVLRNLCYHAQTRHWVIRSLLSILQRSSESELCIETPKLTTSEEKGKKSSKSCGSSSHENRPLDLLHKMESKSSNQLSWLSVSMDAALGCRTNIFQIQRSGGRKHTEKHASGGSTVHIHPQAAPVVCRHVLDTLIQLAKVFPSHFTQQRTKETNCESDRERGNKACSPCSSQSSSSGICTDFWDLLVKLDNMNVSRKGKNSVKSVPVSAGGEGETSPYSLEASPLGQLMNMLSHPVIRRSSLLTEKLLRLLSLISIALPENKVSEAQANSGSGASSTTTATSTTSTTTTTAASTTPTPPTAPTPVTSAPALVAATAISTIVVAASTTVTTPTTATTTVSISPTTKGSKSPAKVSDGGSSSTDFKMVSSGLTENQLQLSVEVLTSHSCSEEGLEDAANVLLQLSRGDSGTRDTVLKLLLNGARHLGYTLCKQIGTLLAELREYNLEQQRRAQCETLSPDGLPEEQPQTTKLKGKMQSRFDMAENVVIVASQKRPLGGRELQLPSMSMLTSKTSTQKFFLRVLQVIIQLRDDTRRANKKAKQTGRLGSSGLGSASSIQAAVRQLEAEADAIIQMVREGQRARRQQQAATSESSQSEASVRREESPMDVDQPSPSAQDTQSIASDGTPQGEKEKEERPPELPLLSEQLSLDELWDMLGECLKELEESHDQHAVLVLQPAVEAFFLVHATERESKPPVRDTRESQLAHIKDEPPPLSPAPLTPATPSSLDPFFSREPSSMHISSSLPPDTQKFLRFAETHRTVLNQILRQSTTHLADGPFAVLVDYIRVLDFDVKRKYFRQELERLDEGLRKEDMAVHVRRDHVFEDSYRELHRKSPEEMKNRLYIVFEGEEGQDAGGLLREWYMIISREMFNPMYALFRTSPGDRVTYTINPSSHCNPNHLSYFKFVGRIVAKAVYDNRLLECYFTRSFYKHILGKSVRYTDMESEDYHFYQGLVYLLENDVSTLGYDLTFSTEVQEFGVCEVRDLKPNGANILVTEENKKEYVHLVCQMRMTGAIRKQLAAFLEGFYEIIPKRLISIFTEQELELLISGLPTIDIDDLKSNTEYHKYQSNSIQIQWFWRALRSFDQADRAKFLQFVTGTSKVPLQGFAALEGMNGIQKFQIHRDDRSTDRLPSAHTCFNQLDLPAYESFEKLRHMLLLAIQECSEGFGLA
Procedure: HUWE1^HECT multi-turnover ubiquitination reactions were performed for 30 minutes (unless stated otherwise) with 200 nM UBA1, 5 μM UBE2L3 or UBE2D3 (as specified), 1 μM HUWE1^HECT and 30 μM Ub in 25 mM HEPES (pH 7.5), 100 mM NaCl, 3 mM MgCl2, and 0.5 mM TCEP. HUWE1^FL multi-turnover ubiquitination reactions included 50 nM UBA1, 2.5 μM UBE2L3, 0.05 μM HUWE1^FL, 0.5 μM MCL1 (or 0.5 μM H2B or 1 μM FOXP3) and 20 μM Ub in 20 mM HEPES (pH 7.5), 100 mM NaCl, 3 mM MgCl2, and 0.5 mM TCEP. All multi-turnover reactions were started by the addition of 1 mM ATP, incubated at 30 °C, quenched with SDS-loading dye. If not stated otherwise, HUWE1^FLautoubiquitination reactions were incubated for 20 minutes. Substrate ubiquitination reactions with MCL1 or H2B were incubated for 10 and 20 min, respectively; those with FOXP3 for 30 min. Those reactions that were monitored by fluorescence contained a fluorescent Ub tracer (IRDye 800CW maleimide; LI-COR)[55] and were monitored using an Odyssey CLx scanner (LI-COR), followed by Coomassie staining. In the fluorescence images, only those marker bands are labeled (in kDa) that are visible by fluorescence; all marker bands are labeled in the Coomassie-stained images. Statistical analyses were performed with Prism 9 v.9.3.1 (GraphPad).

[2] = tested on: HUWE1 substrates, such as MCL1; design: method as in PMID 25253726; conditions: MCL1 upon DNA damage induction; cited from earlier work
[3] = biological target: T2, HUWE1-HECT-Ub vinylthioether-linked conjugate (Homo sapiens, UniProt Q7Z6Z7); experiment: HDX-MS of HUWE1^HECT~Ub proxy with inhibitors; assay type: binding; conditions: 10-fold molar excess of inhibitor
T2 construct: The preparation of the vinylthioether-linked HUWE1^HECT-Ub complex was also previously described; made in house; host or cells: bacteria (components)
T2 sequence (Q7Z6Z7 4038-4374 limits assumed, other chains not shown): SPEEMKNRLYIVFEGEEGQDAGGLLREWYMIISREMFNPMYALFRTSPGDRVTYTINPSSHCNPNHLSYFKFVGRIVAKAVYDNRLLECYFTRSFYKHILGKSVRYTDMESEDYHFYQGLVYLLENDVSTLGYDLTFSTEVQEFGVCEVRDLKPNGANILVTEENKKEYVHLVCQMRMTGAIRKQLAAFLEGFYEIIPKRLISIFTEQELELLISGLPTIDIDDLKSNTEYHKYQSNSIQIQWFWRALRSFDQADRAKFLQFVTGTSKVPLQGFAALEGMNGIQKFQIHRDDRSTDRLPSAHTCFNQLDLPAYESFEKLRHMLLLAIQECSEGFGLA
Procedure: Two experiments were performed: 50 μM HUWE1^HECT (1) or HUWE1^HECT-Ub conjugate (2) were incubated with 500 μM of BI8626 or BI8622 for 1 h on ice prior HDX-MS. Individual HDX reactions were generated with a 2-arm autosampler (LEAP Technologies) by mixing 6.5 μL sample with 58.5 μL of HDX buffer (20 mM HEPES pH 8.0, 150 mM NaCl, 5 mM DTT) prepared with 99.9% D2O, incubation at 25 °C for various times, before quenching by mixing 55 μL with an equal volume of 400 mM KH2PO4/H3PO4 (pH 2.2) and 2 M guanidine-HCl (precooled at 1 °C). Non-deuterated samples were generated analogously by 10-fold dilution with H2O-based buffer. […] For each protein state and time-point, three individual HDX reactions were measured.
Peptide identification and HDX analysis was performed with ProteinLynx Global SERVER v.3.0.1 (PLGS; Waters) and DynamX v.3.0 (Waters), as described previously. […] Only peptides with an intensity >10,000 counts, ≤ 30 residues, ≥ 2 products with ≥ 0.05 products/residue, ≤ 25 ppm mass error and retention time tolerance of 0.5 min were analysed. […] The maximal deuterium uptake of a given peptide was calculated by the number of residues minus one for the N-terminal residue and minus the number of prolines. […]

[4] = tested on: HUWE1^HECT; design: method as in PMID 25253726; conditions: in vitro; read-out: IC50 of HUWE1^HECT inhibition; cited from earlier work

Structure (SMILES)	Inhibition of HUWE1^FL protein ubiquitination activity (E3 autoubiquitination, free Ub chain formation) [1]	Stabilization of HUWE1 substrates [2]	Binding to HUWE1^HECT~Ub proxy by HDX-MS [3]	IC50 [4]
NCc1cccc(CNc2ncnc3c(N4CCN(Cc5ccccc5)CC4)ncnc23)c1 [BI8626]	inhibit the protein ubiquitination activity of the ligase in a dose-dependent manner	stabilize individual HUWE1 substrates under certain conditions, such as MCL1 upon DNA damage induction	did not provide evidence of binding	0.9 µM
Cc1c(C(=O)Nc2ccc(CN)cc2)ncnc1N1CCC(C#N)(c2ccccc2)CC1 [BI8622]	inhibit the protein ubiquitination activity of the ligase in a dose-dependent manner	stabilize individual HUWE1 substrates under certain conditions, such as MCL1 upon DNA damage induction	did not provide evidence of binding	3.1 µM
